Reference: PMC3639963, “A New Class of Small Molecule Inhibitor of BMP Signaling” (PLoS ONE, 2013)

Tests used:
Experiment in all cases: Nanosyn kinase profiling
Assay type in all cases: biochemical
Conditions in all cases: read-out: Percentage inhibition; for inhibition at 0.1 µM: 0.1 µM inhibitor; for inhibition at 1 µM: 1 µM inhibitor
[1] = molecular target: T1, SPHK2 (Homo sapiens, UniProt Q9NRA0)
T1 construct: purchased Nanosyn (enzymatic panel); SGC in-house recombinant human kinases (DSF panel); Invitrogen (ALK1-6)
T1 sequence (Q9NRA0 1-654): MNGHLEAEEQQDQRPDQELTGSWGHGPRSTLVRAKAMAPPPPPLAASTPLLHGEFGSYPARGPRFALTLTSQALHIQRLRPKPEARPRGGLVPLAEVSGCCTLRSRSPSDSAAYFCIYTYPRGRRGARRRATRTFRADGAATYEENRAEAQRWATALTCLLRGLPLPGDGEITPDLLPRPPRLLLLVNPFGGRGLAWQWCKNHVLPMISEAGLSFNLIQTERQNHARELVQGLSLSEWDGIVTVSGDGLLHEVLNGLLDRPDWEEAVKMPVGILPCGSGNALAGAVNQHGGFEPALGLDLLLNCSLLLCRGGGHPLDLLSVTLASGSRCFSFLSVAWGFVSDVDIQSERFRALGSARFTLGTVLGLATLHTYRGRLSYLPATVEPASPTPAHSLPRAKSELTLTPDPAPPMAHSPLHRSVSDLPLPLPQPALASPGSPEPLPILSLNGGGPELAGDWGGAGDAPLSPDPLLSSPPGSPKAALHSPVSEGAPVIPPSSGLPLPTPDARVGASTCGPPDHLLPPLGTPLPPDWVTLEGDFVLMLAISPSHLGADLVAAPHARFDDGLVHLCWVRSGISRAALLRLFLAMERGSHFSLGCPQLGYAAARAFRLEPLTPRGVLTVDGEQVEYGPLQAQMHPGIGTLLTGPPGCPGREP
Procedure, shortened: (§1)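 Percent inhibition of each kinase was measured with the inhibitor at 0.1 µM and at 1 µM, as part of a 200-kinase human selectivity panel.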

[2] = molecular target: T2, CDK1/cycB (Homo sapiens, UniProt P06493)
T2 construct: purchased Nanosyn (enzymatic panel); SGC in-house recombinant human kinases (DSF panel); Invitrogen (ALK1-6)
T2 sequence (P06493 whole entry): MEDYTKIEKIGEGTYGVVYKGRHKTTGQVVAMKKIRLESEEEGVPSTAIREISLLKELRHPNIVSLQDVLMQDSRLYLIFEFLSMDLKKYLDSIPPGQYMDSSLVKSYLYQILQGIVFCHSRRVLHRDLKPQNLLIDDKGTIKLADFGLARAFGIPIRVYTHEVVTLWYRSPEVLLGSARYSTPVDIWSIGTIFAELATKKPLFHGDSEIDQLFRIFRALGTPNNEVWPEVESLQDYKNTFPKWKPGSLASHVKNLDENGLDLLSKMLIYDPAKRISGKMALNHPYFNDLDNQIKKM
T2 sequence (P14635 whole entry partner): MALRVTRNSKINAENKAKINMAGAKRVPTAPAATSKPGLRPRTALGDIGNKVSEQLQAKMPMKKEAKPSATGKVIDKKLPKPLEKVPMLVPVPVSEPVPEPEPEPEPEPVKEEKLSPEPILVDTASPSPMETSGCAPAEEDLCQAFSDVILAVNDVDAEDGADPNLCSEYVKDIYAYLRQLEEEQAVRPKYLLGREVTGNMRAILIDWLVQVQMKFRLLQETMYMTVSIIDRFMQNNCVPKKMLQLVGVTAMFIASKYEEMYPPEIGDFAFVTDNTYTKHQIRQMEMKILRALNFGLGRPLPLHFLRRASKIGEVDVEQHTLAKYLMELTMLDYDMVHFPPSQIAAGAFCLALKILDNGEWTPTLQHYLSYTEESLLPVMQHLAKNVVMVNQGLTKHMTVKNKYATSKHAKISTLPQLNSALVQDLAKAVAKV
Procedure, shortened: as §1

[3] = molecular target: T3, AKT1 (Homo sapiens, UniProt P31749)
T3 construct: purchased Nanosyn (enzymatic panel); SGC in-house recombinant human kinases (DSF panel); Invitrogen (ALK1-6)
Procedure, shortened: as §1

[4] = molecular target: T4, CK2 (Homo sapiens, UniProt P68400)
T4 construct: purchased Nanosyn (enzymatic panel); SGC in-house recombinant human kinases (DSF panel); Invitrogen (ALK1-6)
T4 sequence (P68400 whole entry): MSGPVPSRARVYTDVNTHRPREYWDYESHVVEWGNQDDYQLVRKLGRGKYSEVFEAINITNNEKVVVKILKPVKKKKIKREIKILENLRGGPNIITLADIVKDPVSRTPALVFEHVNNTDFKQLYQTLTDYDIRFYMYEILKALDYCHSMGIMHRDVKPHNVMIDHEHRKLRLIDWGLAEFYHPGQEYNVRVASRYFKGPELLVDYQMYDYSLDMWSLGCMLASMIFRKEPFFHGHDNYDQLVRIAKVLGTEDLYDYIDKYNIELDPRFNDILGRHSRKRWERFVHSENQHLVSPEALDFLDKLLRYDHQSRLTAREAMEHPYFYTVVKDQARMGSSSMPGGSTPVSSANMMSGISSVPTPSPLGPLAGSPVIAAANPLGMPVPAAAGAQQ
T4 sequence (P67870 whole entry partner): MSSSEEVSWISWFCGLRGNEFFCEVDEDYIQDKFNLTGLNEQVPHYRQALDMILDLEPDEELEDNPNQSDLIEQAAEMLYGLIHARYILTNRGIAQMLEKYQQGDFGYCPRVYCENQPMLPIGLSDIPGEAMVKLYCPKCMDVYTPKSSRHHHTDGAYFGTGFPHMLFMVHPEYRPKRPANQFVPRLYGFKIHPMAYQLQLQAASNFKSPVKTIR
Procedure, shortened: as §1

[5] = molecular target: T5, DYRK1B (Homo sapiens, UniProt Q9Y463)
T5 construct: purchased Nanosyn (enzymatic panel); SGC in-house recombinant human kinases (DSF panel); Invitrogen (ALK1-6)
T5 sequence (Q9Y463 whole entry): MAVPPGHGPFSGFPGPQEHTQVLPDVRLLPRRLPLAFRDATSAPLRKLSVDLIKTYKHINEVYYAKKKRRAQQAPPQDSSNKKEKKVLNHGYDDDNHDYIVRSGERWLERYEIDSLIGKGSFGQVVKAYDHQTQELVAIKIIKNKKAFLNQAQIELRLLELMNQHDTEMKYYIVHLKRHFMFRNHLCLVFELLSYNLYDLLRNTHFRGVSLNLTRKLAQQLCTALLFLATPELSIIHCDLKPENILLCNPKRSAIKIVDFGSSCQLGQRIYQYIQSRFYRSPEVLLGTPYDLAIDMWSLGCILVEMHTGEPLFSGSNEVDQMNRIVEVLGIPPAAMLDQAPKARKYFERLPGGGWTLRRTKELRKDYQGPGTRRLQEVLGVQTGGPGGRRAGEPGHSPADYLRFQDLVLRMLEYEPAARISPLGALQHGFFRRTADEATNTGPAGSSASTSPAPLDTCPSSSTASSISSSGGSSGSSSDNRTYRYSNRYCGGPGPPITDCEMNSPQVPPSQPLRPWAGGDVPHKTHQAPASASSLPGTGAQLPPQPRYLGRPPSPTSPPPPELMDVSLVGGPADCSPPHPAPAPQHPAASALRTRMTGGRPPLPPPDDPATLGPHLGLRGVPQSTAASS
Procedure, shortened: as §1

[6] = molecular target: T6, PYK2 (Homo sapiens, UniProt Q14289)
T6 construct: purchased Nanosyn (enzymatic panel); SGC in-house recombinant human kinases (DSF panel); Invitrogen (ALK1-6)
T6 sequence (Q14289 whole entry): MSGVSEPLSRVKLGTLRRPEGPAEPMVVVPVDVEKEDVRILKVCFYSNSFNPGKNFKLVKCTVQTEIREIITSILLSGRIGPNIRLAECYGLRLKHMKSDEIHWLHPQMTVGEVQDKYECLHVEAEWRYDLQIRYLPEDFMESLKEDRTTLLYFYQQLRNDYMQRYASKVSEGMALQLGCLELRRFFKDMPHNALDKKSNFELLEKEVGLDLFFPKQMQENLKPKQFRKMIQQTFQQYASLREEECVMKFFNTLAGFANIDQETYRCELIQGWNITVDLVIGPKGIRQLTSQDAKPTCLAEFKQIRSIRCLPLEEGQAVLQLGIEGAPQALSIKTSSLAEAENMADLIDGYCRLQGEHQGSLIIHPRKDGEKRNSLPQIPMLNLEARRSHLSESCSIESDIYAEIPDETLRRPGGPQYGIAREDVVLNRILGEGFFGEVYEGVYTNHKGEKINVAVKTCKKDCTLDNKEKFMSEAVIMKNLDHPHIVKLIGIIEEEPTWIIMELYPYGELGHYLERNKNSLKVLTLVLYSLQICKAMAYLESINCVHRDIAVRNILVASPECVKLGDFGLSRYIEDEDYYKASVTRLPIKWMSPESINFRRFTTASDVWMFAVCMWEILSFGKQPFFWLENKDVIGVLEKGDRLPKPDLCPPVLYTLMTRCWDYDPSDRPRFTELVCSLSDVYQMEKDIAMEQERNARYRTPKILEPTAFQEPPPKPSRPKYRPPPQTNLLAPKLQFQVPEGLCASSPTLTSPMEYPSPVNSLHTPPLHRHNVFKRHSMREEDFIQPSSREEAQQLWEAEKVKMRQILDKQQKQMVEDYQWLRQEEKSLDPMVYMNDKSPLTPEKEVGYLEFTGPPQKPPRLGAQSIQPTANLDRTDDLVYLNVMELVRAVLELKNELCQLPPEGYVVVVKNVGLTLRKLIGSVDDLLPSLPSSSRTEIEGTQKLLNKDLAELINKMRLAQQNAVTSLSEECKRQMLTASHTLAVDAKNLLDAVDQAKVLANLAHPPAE
Procedure, shortened: as §1

[7] = molecular target: T7, KDR (Homo sapiens, UniProt P35968)
T7 construct: purchased Nanosyn (enzymatic panel); SGC in-house recombinant human kinases (DSF panel); Invitrogen (ALK1-6)
Procedure, shortened: as §1

[8] = molecular target: T8, BRSK1 (Homo sapiens, UniProt Q8TDC3)
T8 construct: purchased Nanosyn (enzymatic panel); SGC in-house recombinant human kinases (DSF panel); Invitrogen (ALK1-6)
T8 sequence (Q8TDC3 1-778): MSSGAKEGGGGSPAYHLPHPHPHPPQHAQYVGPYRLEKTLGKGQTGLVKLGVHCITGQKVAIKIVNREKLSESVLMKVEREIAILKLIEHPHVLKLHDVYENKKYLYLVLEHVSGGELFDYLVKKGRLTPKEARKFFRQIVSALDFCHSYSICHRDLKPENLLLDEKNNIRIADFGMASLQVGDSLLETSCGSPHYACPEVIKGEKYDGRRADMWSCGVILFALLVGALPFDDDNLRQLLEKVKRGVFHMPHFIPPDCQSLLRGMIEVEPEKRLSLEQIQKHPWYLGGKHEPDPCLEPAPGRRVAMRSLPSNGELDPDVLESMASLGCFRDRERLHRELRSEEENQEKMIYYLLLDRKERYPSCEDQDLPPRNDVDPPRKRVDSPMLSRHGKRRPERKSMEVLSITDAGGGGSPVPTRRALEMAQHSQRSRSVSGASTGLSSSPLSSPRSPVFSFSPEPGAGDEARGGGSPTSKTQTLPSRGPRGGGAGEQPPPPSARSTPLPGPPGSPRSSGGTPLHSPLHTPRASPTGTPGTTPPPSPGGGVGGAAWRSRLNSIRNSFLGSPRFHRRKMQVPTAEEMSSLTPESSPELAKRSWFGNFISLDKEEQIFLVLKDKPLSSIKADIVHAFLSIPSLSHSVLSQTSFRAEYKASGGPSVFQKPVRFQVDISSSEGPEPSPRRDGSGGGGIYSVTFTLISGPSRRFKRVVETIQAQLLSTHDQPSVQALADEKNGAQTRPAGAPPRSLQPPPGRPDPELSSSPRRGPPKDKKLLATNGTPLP
Procedure, shortened: as §1

[9] = molecular target: T9, GSK3α (Homo sapiens, UniProt P49840)
T9 construct: purchased Nanosyn (enzymatic panel); SGC in-house recombinant human kinases (DSF panel); Invitrogen (ALK1-6)
T9 sequence (P49840 whole entry): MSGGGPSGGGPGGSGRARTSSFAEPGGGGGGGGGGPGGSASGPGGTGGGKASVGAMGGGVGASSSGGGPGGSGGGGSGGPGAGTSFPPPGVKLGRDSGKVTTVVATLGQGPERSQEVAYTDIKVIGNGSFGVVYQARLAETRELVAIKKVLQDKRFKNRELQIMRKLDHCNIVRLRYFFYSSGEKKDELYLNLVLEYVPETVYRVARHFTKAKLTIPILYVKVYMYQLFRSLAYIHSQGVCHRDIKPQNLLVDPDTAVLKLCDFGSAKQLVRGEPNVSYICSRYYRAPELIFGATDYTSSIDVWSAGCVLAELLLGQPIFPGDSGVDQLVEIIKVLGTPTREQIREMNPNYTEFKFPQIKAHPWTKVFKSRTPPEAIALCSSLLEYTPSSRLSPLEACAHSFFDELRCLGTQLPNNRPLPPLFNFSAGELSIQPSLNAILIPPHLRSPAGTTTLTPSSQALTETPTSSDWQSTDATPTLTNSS
Procedure, shortened: as §1

[10] = molecular target: T10, ROCK1 (Homo sapiens, UniProt Q13464)
T10 construct: purchased Nanosyn (enzymatic panel); SGC in-house recombinant human kinases (DSF panel); Invitrogen (ALK1-6)
T10 sequence (Q13464 whole entry): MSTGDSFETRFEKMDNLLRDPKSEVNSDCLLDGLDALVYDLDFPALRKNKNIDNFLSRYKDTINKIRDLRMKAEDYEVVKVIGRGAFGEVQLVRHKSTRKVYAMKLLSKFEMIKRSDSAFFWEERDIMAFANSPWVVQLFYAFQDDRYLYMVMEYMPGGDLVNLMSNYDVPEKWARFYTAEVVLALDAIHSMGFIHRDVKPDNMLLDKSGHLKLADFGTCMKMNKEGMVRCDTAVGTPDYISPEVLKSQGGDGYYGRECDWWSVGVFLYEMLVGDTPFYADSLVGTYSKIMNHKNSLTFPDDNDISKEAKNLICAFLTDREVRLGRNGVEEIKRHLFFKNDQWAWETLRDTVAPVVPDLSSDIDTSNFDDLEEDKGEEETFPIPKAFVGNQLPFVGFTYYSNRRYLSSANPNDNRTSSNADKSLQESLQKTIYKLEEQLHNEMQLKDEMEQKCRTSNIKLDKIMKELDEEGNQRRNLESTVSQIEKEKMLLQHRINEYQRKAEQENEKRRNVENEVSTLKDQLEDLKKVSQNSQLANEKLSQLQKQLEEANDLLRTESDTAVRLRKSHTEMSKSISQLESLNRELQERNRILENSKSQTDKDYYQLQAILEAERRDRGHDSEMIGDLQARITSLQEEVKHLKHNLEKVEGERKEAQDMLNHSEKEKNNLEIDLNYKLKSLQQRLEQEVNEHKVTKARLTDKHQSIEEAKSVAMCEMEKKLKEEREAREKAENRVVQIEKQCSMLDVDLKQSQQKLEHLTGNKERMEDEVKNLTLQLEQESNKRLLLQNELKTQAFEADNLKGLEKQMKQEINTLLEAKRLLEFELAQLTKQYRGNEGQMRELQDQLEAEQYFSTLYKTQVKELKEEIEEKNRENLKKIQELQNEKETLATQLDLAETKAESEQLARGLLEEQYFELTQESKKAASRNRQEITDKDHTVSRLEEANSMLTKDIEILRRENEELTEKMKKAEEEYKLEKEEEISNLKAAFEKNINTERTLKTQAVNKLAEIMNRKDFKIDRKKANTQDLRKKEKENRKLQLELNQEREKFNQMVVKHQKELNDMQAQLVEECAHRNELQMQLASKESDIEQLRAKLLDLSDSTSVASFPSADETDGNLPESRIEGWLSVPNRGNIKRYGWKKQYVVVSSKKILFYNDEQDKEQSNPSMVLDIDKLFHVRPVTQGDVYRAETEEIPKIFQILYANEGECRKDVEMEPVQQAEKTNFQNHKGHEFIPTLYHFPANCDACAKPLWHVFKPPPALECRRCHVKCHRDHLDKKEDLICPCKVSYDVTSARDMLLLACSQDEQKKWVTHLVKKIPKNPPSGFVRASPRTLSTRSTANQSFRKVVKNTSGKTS
Procedure, shortened: as §1

SMILES | inhibition at 0.1 µM [1] [%] | inhibition at 1 µM [1] [%] | inhibition at 0.1 µM [2] [%] | inhibition at 1 µM [2] [%] | inhibition at 0.1 µM [3] [%] | inhibition at 1 µM [3] [%] | inhibition at 0.1 µM [4] [%] | inhibition at 1 µM [4] [%] | inhibition at 0.1 µM [5] [%] | inhibition at 1 µM [5] [%] | inhibition at 0.1 µM [6] [%] | inhibition at 1 µM [6] [%] | inhibition at 0.1 µM [7] [%] | inhibition at 1 µM [7] [%] | inhibition at 0.1 µM [8] [%] | inhibition at 1 µM [8] [%] | inhibition at 0.1 µM [9] [%] | inhibition at 1 µM [9] [%] | inhibition at 0.1 µM [10] [%] | inhibition at 1 µM [10] [%]
COc1cc(-c2cc(-c3cccc(O)c3)cnc2N)cc(OC)c1OC [K02288, 3-[6-amino-5-(3,4,5-trimethoxy-phenyl)-pyridin-3-yl]-phenol] | -2 | 4.4 | 1 | 1.5 | -2 | -1 | 6.2 | 2.8 | 2.6 | 6 | -1 | 0 | 0.5 | 3.9 | 2.3 | 0 | 0.6 | 2.1 | 0.5 | 3.1
c1ccc2c(-c3cnn4cc(-c5ccc(N6CCNCC6)cc5)cnc34)ccnc2c1 [LDN-193189] | -1 | -3 | 0.5 | 5 | 0.8 | 1.6 | 0.7 | 4.2 | 7.1 | 41 | 4.6 | 9 | 19 | 69 | 3 | 17 | 3.2 | 1.1 | 0 | 0.7
